Measured values reported in US7138486B2, “Insulinotropic hormone derivatives and uses thereof” (The General Hospital Corporation, priority 1986, dated 2006).

Key:
[1] = test system: rat insulin I gene promoter in βTC-1 cells; assay: CAT activity in cells transiently transfected with −410 Ins-CAT plasmid; type: cell-based, mouse; details: 24 hours
Experimental: Cells of two 80–90% confluent 150 mm culture plates were trypsinized and transfected in solution in one tube with 15 μg of indicator plasmid using the DEAE-dextran method. The plasmid contained 410 bp of the rat insulin I gene promoter fused to the transcriptional reporter gene encoding the bacterial enzyme chloramphenicol-acetyltransferase (CAT). […] Subsequently cells were plated into 18 wells of six well plates. […] Thereby, differences in transfection deficiencies reflected in CAT activities were normalized against protein concentrations as well as the respective control experiments. After transfection cells were incubated in RPMI 1640 supplemented with 0.1% human serum albumin and 0.1% bacitracin. […] After extraction with ethylacetate (1 ml) acetylated and non-acetylated ^14C-chloramphenicol were separated by thin-layer chromatography (chloroform:methanol 9:1), identified by autoradiography and the respective spots were scraped from the plates and radioactivity was counted in a scintillation counter.

βTC-1 cells [2] = assay: Proinsulin biosynthesis ([3H]leucine labelling); type: cell-based, mouse; details: 6 hours labeling
Experimental: βTC-1 cells (Efrat et al., Proc. Natl. Acad. Sci. (USA) 85:9037–9041 (1988)) were grown in a humidified atmosphere at 37° C. in RPMI 1640 medium supplemented with 10% (vol/vol) fetal bovine serum, 5% (vol/vol) horse serum, 100 U/ml penicillin and 100 μg/ml streptomycin. Media were changed after three days and cells were split 1:3 after six days.
βTC-1 cells were plated into 35 mm plates and grown for two days to reach 80–90% confluency. During a 6 hour labeling period cells were incubated in 1 ml RPMI 1640 supplemented with 0.1% human serum albumin, 0.1% bacitracin and 50 μCi[^3H]leucine. Forskolin, IBMX, 8-Bromo-cAMP and GLP-1(7-37) were added from stock solutions as described (see “cell transfection”). Cells were harvested in PBS and lysed by three freeze-thaw cycles. Immunoreactive proinsulin was precipitated with an antiserum raised in rabbits against pork insulin that was coupled to a 10% suspension of bacterial lysates (Saureus) containing protein A. Radioactivity contained in the resulting pellets was counted using a lliquid scintillation counter. Incorporation of [^3H]leucine into total protein was measured in trichloroacetic acid precipitates of the cells. None of the agents tested had any effects on [^3H]leucine incorporation into TCA precipitable proteins. Data are expressed as fold-induction of proinsulin biosynthesis above those in the control experiments (no treatment).

βTC-1 cells [3] = assay: Cellular insulin content by radioimmunoassay; type: cell-based, mouse; details: 24 hours
Experimental: Two days before the experiment commenced, cells were plated into 35 mm plates. Media were changed to RPMI 1640 supplemented with 0.1% human serum albumin and 0.1% bacitracin. […] After incubation for 24 hours under these conditions, cells were washed three times with PBS and harvested in 1.5 ml buffer containing 150 mM NaCl, 1 mM EDTA and 40 mM Tris/Cl pH 7.4 and resuspended in 200 μl PBS. Fifty μl of this cell suspension were resuspended in 1 ml 1 M acetic acid and extracted for 16 hours at 4° C. Aliquots (2 and 20 μl) were lyophilized and reconstituted in insulin-RIA buffer. The cell number of each plate was controlled by determination of total protein in the initial cell lysate. […] Insulin was measured with a radioimmunoassay system using an antiserum raised in rabbits against pork insulin and pork insulin as the standard. […] Data are presented as fold-increase of insulin content per well above the control experiments (no treatment).

[4] = biological target: receptor involved in the recognition of glucagon; assay: cell-based or functional assay

Molecule: CC[C@H](C)[C@H](NC(=O)[C@H](Cc1ccccc1)NC(=O)[C@H](CCC(=O)O)NC(=O)[C@H](CCCCN)NC(=O)[C@H](C)NC(=O)[C@H](C)NC(=O)[C@H](CCC(N)=O)NC(=O)CNC(=O)[C@H](CCC(=O)O)NC(=O)[C@H](CC(C)C)NC(=O)[C@H](Cc1ccc(O)cc1)NC(=O)[C@H](CO)NC(=O)[C@H](CO)NC(=O)[C@@H](NC(=O)[C@H](CC(=O)O)NC(=O)[C@H](CO)NC(=O)[C@@H](NC(=O)[C@H](Cc1ccccc1)NC(=O)[C@@H](NC(=O)CNC(=O)[C@H](CCC(=O)O)NC(=O)[C@H](C)NC(=O)[C@H](Cc1cnc[nH]1)NC(=O)[C@H](CCCNC(=N)N)NC(=O)[C@H](CCC(=O)O)NC(=O)[C@H](Cc1ccccc1)NC(=O)[C@H](CCC(=O)O)NC(=O)[C@H](CC(=O)O)NC(=O)[C@@H](N)Cc1cnc[nH]1)[C@@H](C)O)[C@@H](C)O)C(C)C)C(=O)N[C@@H](C)C(=O)N[C@@H](Cc1c[nH]c2ccccc12)C(=O)N[C@@H](CC(C)C)C(=O)N[C@H](C(=O)N[C@@H](CCCCN)C(=O)NCC(=O)N[C@@H](CCCNC(=N)N)C(=O)NCC(=O)O)C(C)C [GLP-1(1-37)]
- half-life (Biological half-life): 15 to 20 min

Molecule: C=C[C@@]1(C)CC(=O)[C@]2(O)[C@@]3(C)[C@@H](O)CCC(C)(C)[C@@H]3[C@H](O)[C@H](OC(C)=O)[C@@]2(C)O1 [Forskolin, forskolin]
- Increase of CAT activity ([1]; 10 μM): 3.3±0.57 fold
- Increase of proinsulin biosynthesis (βTC-1 cells [2]; 10 μM): 1.53±0.06 fold
- Increase of total cellular insulin content (βTC-1 cells [3]; 10 μM): 1.49±0.18 fold

Molecule: glucagon (from UniProt P01275 53-81) (peptide)
- mean perfusate insulin concentration, perfused rat pancreas, glucagon alone at 10^-9 M [4]: 4.98 ng/mL

Molecule: CC(C)Cn1c(=O)n(C)c(=O)c2[nH]cnc21 [IBMX]
- Increase of CAT activity ([1]; 0.5 mM): 2.6±0.16 fold
- Increase of proinsulin biosynthesis (βTC-1 cells [2]; 0.5 mM): 1.53±0.06 fold
- Increase of total cellular insulin content (βTC-1 cells [3]; 0.5 mM): 1.30±0.12 fold
